# Measurements taken from patent EP0526502B1, “PHENOLIC AMINE DEPIGMENTING AND ANTIMELANOMA AGENTS” (The Governors of the University of Alberta, priority 1990, dated 1991).
# Several values for one entry are separate records, joined by “and”; a condition that tells them apart may be missing. Equal values may be shown once.
# What was measured:
# [1] = acute toxicity evaluated from 100 to 1600 mg/Kg; Miura et al; cited from earlier work
# follicular melanocytes = assay: Depigmentation of new hair after plucking (PTCA/eumelanin content of hair follicles); assay type: in vivo, C57BL/6J black mice; details: for PTCA Content / Depigmentation: hair harvested day 22
# Procedure: Breeding pairs of C57BL/6J black mice were purchased from Jackson Laboratory, Bar Harbor, Maine. Female progeny were used in this testing when approximately 8 weeks old and weighing 17 grams.
# Black hairs were plucked manually from the back of the mice to initiate new anagen growth and activate follicular melanocytes with increased tyrosinase activity. Thirty mice were randomized into 6 groups of 5 (1 control and 1 for each compound). Starting on day 1, daily for 14 days the agent was injected i.p. or was infiltrated s.c. in an area where hair follicles had been plucked; the dose was 300 mg/kg body weight.
# In the same 30 mice, hair follicles were harvested on day 22 (early telogen phase) and their eumelanin content analyzed. Details of the assay, including chemical degration of melanin and high-performance liquid chromatography (HPLC) were as described in Ito et al, "Quantitative Analysis of Eumelanin and Pheomelanin in Hair and Melanosomes" J. Invest. Dermatol 80:268-272, 1983. Briefly, a 10-mg hair sample is homogenized in water at a concentration of 10 mg/ml; the 200-»l homogenate is transferred to a screw-capped test tube, mixed with 1M H₂SO₄ (800 »L) and oxidized with 3% KMnO₄. The product, pyrrole-2,3,5-tricarboxylic acid (PTCA), is analyzed by HPLC with a UVL detector; samples are measured in duplicate. The eumelanin content is expressed as PTCA (ng/mg) against the PCTA content of BALB/c albino mice as control (≦ 10 ng/mg, the background value with our method, in which 1 ng corresponds roughly to a eumelanin content of 50 ng), and the degree of depigmentation is expressed as a percentage: (PTCA content of control sampleminusPTCA content of experimental sample)/(PCTA content of control sample) x 100 [formula] .
# Mushroom tyrosinase = Mushroom tyrosinase (Agaricus bisporus, UniProt C7FF04); assay: Enzyme kinetics with tyrosinase (substrate disappearance by HPLC, Lineweaver-Burk); assay type: biochemical; details: result in words
# Sequence of Mushroom tyrosinase (C7FF04 1-392): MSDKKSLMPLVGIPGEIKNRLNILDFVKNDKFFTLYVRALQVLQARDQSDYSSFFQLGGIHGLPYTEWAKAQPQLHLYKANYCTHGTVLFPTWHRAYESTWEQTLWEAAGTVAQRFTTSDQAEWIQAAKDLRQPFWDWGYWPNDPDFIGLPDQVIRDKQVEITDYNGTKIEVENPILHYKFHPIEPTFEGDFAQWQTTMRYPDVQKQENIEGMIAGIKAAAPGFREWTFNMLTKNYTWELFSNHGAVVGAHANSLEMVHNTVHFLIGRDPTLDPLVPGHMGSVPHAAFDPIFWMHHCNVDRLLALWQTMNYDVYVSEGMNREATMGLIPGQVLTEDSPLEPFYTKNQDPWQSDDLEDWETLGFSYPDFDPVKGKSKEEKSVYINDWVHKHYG
# Procedure: (§1) Mushroom tyrosinase (400 units/mg) and plasma MAO (1000 units/gm) were obtained from Sigma Chemical Co. (St. Louis, MO, USA). A reaction mixture consisted of a substrate of 7 to 8 different concentrations (40 to 500 »M for mushroom tyrosinase and 20 to 200 »M for MAO) and of either mushroom tyrosinase (2.5 »g) or MAO (10 »g) in 1.0 mL of 0.05 M sodium phosphate buffer, pH 6.8 and 7.4 respectively. The reactions were carried out at 37°C in a shaking water bath, and stopped by taking 100 »L of the reaction mixture and adding it to 900 »L of 0.4 M HCLO₄. The disappearance of substrate was followed using HPLC (high pressure liquid chromatography) Km and Vmax values were calculated from the Lineweaver-Burk plots.
# B16 melanoma = assay: In vivo growth inhibition of s.c. inoculated B16 melanoma; design: species or system C57BL/6J mice; details: 200 mg/Kg i.p. daily for nine days, day 12 or 13
# Procedure: The in vivo antimelanoma effect of the compounds were evaluated by percent growth inhibition of inoculated tumour (%g.i.). The percent g.i. was computed from the mean tumour volume at day 12 or 13 of the experiments; i.e., 100 x (1- treated group/control group). […] To further examine whether a minimal dose of N-Ac-4-S-CAP, 200 mg/Kg has an antimelanoma effect, three groups of mice were treated with N-Ac-4-S-CAP. […] One of the advantages of N-Ac-4-S-CAP over 4-S-CAP was that it had much higher LD⁵⁰ (as high as 1400 mg/Kg of body weight, and therefore a greater range of safety).
# melanocytes = assay: Light and electron microscopy of melanocytes in regrowing hair follicles; assay type: in vivo, mice; details: for electron microscopy of hair follicles: melanocytes and melanosomes: i.p. injection for 10 days
# Procedure: In six groups of 4 mice (1 control and 1 for each compound) were treated daily with the control or compound injected i.p. The compounds tested were 4-S-CAP, N-Ac-4-S-CAP and α-Me-4-S-CAP. Samples of skin and regrowing hair follicles were excised under brief general anaesthesia on day 10 (late anagen phase), fixed in Karnovsky's solution (2.5% glutaraldehyde and 2.5% paraformaldehyde in 0l1 M cacodylate buffer), and refixed in 1% osmium tetroxide in cadodylate buffer. Tissues were stained en bloc with 1.5% uranyl acetate in o.1 M veronal buffer for 30min, dehydrated in graded ethanol solutions, embedded in epoxy resin, and sectioned with a Potter-Blum ultramicrotome MT II. Sections 1.0 »m thick were stained with methylene blue for light microscopy, thin sections were stained with led citrate for electron microscopy.
# plasma MAO = molecular target: T1, plasma MAO (Bos taurus, UniProt Q29437); assay: Enzyme kinetics with monoamineoxidase (substrate disappearance by HPLC, Lineweaver-Burk); assay type: biochemical; details: result in words
# T1 construct: purchased Sigma Chemical Co. (St. Louis, MO, USA)
# T1 sequence (Q29437 17-762): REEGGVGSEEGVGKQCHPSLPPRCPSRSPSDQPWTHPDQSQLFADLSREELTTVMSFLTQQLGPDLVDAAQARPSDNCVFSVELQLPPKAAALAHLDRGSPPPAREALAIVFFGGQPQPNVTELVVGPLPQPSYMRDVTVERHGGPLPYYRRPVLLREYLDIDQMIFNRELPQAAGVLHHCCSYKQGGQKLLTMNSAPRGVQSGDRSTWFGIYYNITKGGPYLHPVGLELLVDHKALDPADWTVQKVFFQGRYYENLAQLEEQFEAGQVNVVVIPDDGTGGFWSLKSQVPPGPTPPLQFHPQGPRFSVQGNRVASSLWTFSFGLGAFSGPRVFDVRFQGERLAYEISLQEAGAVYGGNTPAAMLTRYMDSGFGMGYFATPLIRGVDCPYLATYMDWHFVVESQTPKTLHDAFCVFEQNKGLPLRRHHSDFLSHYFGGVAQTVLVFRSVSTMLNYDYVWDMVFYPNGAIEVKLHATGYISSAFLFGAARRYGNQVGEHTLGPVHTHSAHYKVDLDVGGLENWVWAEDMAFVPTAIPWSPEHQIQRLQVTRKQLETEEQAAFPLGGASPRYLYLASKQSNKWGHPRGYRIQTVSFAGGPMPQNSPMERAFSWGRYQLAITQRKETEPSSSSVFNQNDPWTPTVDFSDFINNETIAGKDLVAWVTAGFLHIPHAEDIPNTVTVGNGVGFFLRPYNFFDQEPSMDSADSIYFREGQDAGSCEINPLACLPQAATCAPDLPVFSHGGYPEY
# Procedure: as §1
# B16F10 melanoma = assay: Melanoma-colony formation in the lungs; assay type: in vivo, mice; details: 300 mg/kg i.p. daily for 14 days from day five; lungs excised day 26
# Procedure: Murine B16F10 melanoma cell line with a strong metastatic property to form tumour colonies in the lungs was obtained from Dr. Longenecker, Department of Immunology, University of Alberta. Such cell line is well recognized and readily available as reported in Miura et al, supra. The cells were grown in T-75 flasks in dulbecco's MEM available from Gipco Lab Inc., Grand Island, New York, supplemented with 10% fetal calf serum, also obtained from Gipco, penicillin (100 »/ml) and streptomycin (100 »g/ml). The cells were incubated at 37°C in humidified atmosphere of 5% CO₂ in air. The cells were harvested by applying a thin layer of 0.25% trypsin solution in EDTA, washed and resuspended in cold N saline solution. Viable cells were identified by trypan blue dye exclusion and counted. The cell suspension was diluted to the desired concentration. Three groups of mice were studied using a control 4-S-CAP and N-Ac-4-S-CAP as the active agents in the treatment. On day zero, the mice were inoculated via the lateral tail vein with 5 x 10⁴ cells in 0.2 ml of N saline. The test drugs were dissolved in normal saline, sterilized by membrane filtration, and administered in a dose of 300 mg/Kg (4-S-CAP) or 900 mg/Kg (N-Ac-4-S-CAP); starting on day five, the control solution or drug was injected i.p. daily for 14 days. On day 26, the mice were killed by cervical dislocation, their lungs were removed, and the number of melanoma colonies was counted under a dissecting microscope. The results were expressed as percentage reduction in the number of colonies: [a - b/a] x 100, where a = colonies in control group and b = colonies in experimental group.
# [2] = Acute toxicity / lethal dose and maximum tolerable dose; details: mouse, in vivo
# Procedure: 3:1-85 1972. In accordance with this Protocol, ten to fifteen mice were used in each test group. They were weighed and randomized at day one after s.c. inoculation of B16 melanoma cells. From day five, the phenolic melanin precursors were administered i.p. daily for nine days. The test compounds were dissolved in normal saline, and sterilized by heating to 100°C for 2 minutes. […] They were administered i.p. with the following doses: 400 mg/Kg - 4-S-CAP; 200 to 300 mg/Kg - 4-S-CAP; and 200 to 1200 mg/Kg - N-Ac-4-S-CAP. A catalytic amount of L-dopa, 25 mg/Kg and antidecarboxylase, carbidopa, 400 mg/Kg, were also administered. Carbidopa was given one hour prior to L-dopa administration. DTIC (NSC 4538) was used as a control drug at a dose of 60 mg/Kg. Acute toxicity of 4-S-CP and 4-S-CAP was evaluated from 100 to 1600 mg/Kg.
# The B16 mouse melanoma was maintained by s.c. inoculation of tumour cells into the back of C57BL7J mice (5 to 6 weeks, female). […] Briefly, excised tumours were homogenized in normal saline. The homogenized tumour cells were then passed through a sterile 80 mesh stainless steel screen, washed with normal saline, centrifuged (500 g. for 10 minutes) and resuspended in normal saline. Suspensions of viable melanoma cells at the concentration of 1 x 10⁶ per 0.1 ml were inoculated s.c. into both the right and left inguinal areas of C57BL/6J mice (female, 5 to 6 weeks old, 18 to 20 gm).
# [3] = Route s.c., 300 mg/kg daily for 14 days
# [4] = Route s.c., 300 mg/kg daily for 14 days, 300 mg/kg
# [5] = Route: i.p., 300 mg/kg daily for 14 days
# [6] = Route: i.p., 300 mg/kg daily for 14 days, 300 mg/kg
Structure (SMILES),lethal dose [1],PTCA Content (follicular melanocytes; [3]),Depigmentation (follicular melanocytes; [4]),PTCA Content (follicular melanocytes; [5]),Depigmentation (follicular melanocytes; [6]),electron microscopy of hair follicles: melanocytes and melanosomes (melanocytes),Depigmentation (follicular melanocytes; [3]),Depigmentation (follicular melanocytes; [5]),other results
"NCCSc1ccc(O)cc1 [4-S-CAP, 4-S-cysteaminylphenol, reference compound]",400 mg/kg,458.3 ± 107.6 ng/mg,47% and 46.9%,146.1 ± 72.4 ng/mg,87% and 86.6%,contained immature melanosomes at stages II and III,–,–,"tyrosinase substrate (Mushroom tyrosinase): a substrate for both plasma MAO and tyrosinase; %Gi (B16 melanoma; Experiment I): 54.0%; Tumour Volume (B16 melanoma; Experiment I): 239 ± 39 mm^3; %Gi (B16 melanoma; Experiment II): 25.1%; Tumour Volume (B16 melanoma; Experiment II): 405 ± 61 mm^3; light microscopy of hair follicles: functioning melanocytes and melanin pigments (melanocytes; i.p. daily, day 10 (late anagen phase)): the hair follicles contained functioning melanocytes and melanin pigments transferred into keratonocytes, although they were much sparser than in the controls; substrate for plasma MAO (plasma MAO): a substrate for both plasma MAO and tyrosinase; No. of Colonies % control (B16F10 melanoma): 30% and 32.4%; No. of Colonies per pair of lungs (B16F10 melanoma): 28.0 ± 14.5"
"CC(N)CSc1ccc(O)cc1 (stereo not drawn) [α-Me-4-S-CAP, α-methyl-4-S-CAP]",–,557.9 ± 47.2 ng/mg,58% and 57.9%,121.3 ± 81.9 ng/mg,89% and 88.9%,contained immature melanosomes at stages II and III,–,–,"side-effects (follicular melanocytes; 300 mg/kg daily for 14 days, i.p. or s.c., irritation seen after s.c. administration): some irritation of the skin in the plucked area; per single dose toxicity levels [2]: ~500 mg/kg of body weight"
"CN(C)CCSc1ccc(O)cc1 [N,N-DiMe-4-S-CAP, N,N'-dimethyl-4-S-CAP]",–,1023.4 ± 110.1 ng/mg,–,1009.0 ± 193.5 ng/mg,–,–,6.1%,7.3%,"visible pigmentation of new hair (follicular melanocytes; i.p. or s.c. route, result in words): no visible changes in pigmentation in new follicles"
"N[C@@H](CSc1ccc(O)cc1)C(=O)O [4-S-CP, 4-S-cysteinylphenol]",600 mg/kg,–,–,–,–,–,–,–,–
"NCCCSc1ccc(O)cc1 [4-S-HomoCAP, 4-S-homo-CAP]",–,397.7 ± 279.3 ng/mg,–,956.7 ± 77.9 ng/mg,–,–,63.5%,12.1%,–
